# Laboratory results: US7524964B2, “Tetrahydrothiopyrano pyrazole cannabinoid modulators” (Janssen Pharmaceutica NV, priority 2005, dated 2009)
# “And” between values parts separate entries of the source, which are not always exact repeats. Equal values may be shown once. Read-outs that look alike come from different tables or passages of the source.
# Tests used:
# [1] = molecular target: T1, human CB-2 receptor (Homo sapiens, UniProt P34972); assay: Binding assay, cannabinoid CB2 receptor ([3H]-CP-55,940 displacement); conditions: for inhibition at 1 µM: test concentration 1 μM (superscript b); for inhibition at 1 µM / inhibition at 0.2 µM: read-out: CB2 binding percent inhibition
# T1 construct: expressed in transfected cells; host or cells: SK-N-MC cells, pcDNA3 CB-2 (human), semi-purified membranes
# T1 sequence (P34972 whole entry): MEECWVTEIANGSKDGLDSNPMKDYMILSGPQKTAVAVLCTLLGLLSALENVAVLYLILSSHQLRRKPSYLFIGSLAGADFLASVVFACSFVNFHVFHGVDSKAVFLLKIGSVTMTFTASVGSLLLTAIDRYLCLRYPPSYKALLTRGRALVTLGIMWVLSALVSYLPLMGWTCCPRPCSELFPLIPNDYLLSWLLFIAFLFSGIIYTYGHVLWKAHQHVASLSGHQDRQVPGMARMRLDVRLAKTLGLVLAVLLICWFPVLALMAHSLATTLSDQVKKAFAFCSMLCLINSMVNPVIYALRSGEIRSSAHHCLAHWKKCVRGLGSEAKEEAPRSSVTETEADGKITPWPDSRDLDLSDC
# How it was run: (§1)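 Displacement of 0.2 nM [3H]-CP-55,940 (non-specific: 10 uM WIN 55,212) was run on semi-purified membranes of transfected SK-N-MC cells carrying human CB-1 or CB-2, 90 min, 30° C, pH 7.5. Scintillation counting; IC50 by linear regression, else % inhibition at 0.2, 1 or 10 μM.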
# [2] = molecular target: T2, human CB1 receptor (Homo sapiens, UniProt P21554); assay: Binding assay, cannabinoid CB1 receptor ([3H]-CP-55,940 displacement); parameters: expressed in transfected cells; host or cells: SK-N-MC cells, pcDNA3 CB-1 (human), semi-purified membranes; conditions: for inhibition at 1 µM: test concentration 1 μM (superscript b); for inhibition at 1 µM / inhibition at 0.2 µM: read-out: CB1 binding percent inhibition; for inhibition at 0.2 µM: test concentration 0.2 μM (superscript a)
# T2 sequence (P21554 whole entry): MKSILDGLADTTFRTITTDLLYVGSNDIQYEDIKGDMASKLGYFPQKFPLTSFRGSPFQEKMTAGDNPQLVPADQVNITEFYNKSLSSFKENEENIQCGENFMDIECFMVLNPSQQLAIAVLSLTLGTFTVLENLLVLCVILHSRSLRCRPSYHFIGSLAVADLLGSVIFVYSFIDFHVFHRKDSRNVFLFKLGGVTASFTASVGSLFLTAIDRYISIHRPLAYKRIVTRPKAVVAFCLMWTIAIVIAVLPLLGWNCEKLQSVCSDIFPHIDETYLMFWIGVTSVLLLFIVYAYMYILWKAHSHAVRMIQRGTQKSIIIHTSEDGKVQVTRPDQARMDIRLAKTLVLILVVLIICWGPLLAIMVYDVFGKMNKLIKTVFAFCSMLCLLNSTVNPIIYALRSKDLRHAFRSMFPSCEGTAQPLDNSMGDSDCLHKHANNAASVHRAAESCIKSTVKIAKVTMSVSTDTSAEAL
# How it was run: as §1
# [3] = molecular target: T2, human CB1 receptor; assay: Functional cell-based assay, CB1 receptor mediated change in CRE β-gal expression (adenylate cyclase activity); parameters: expressed in transfected cells; host or cells: SK-NC cells [sic], pcDNA3-CRE β-gal and pcDNA3 CB-1 (human); conditions: for inhibition at 1 µM: test concentration 1 μM, where an EC50 was not obtained, read-out: CB1 functional percent inhibition
# Excerpt: Functional Cell-Based Assay for CB1 or CB2 Agonist and Inverse Agonist Effects on Intra-Cellular Adenylate Cyclase Activity
# The CB1 and CB2 receptors are G-protein coupled receptors (GPCR), which influence cell function via the Gi-protein. These receptors modulate the activity of intracellular adenylate cyclase, which in turn produces the intracellular signal messenger cyclic-AMP (cAMP).
# At baseline, or during non-ligand bound conditions, these receptors are constitutively active and tonically suppress adenylate cyclase activity. The binding of an agonist causes further receptor activation and produces additional suppression of adenylate cyclase activity. The binding of an inverse agonist inhibits the constitutive activity of the receptors and results in an increase in adenylate cyclase activity.
# By monitoring intracellular adenylate cyclase activity, the ability of compounds to act as agonists or inverse agonists can be determined.
# Test compounds were evaluated in SK-NC cells which, using standard transfection procedures, were stably transfected with human cDNA for pcDNA3-CRE β-gal and pcDNA3 CB-1 (human) or pcDNA3 CB-2 (human). By expressing CRE β-gal, the cells produced β-galactosidase in response to CRE promoter activation by cAMP. Cells expressing CRE β-gal and either the human CB1 or CB2 receptor will produce less β-galactosidase when treated with a CB1/CB2 agonist and will produce more β-galactosidase when treated with a CB1/CB2 inverse agonist.
# The cells were grown in 96-well plates under standard cell culture conditions at 37° C. in a 5% CO2 atmosphere. After 3 days, the media was removed and a test compound in media (wherein the media was supplemented with 2 mM L-glutamine, […] sodium pyruvate, 0.1% low fatty acid FBS (fetal bovine serum) and antibiotics) was added to the cell. The plates were incubated for 30 minutes at 37° C. and the plate cells were then treated with forskolin over a 4-6 hour period, then washed and lysed. The β-galactosidase activity was quantitated using commercially available kit reagents (Promega Corp. Madison, Wis.) and a Vmax Plate Reader (Molecular Devices, Inc).
# For cells expressing CRE β-gal and the CB1 receptor, CB1 agonists reduced β-galactosidase activity in a dose-dependent manner and CB1 inverse agonists increased β-galactosidase activity in a dose-dependent manner.
# The change in β-galactosidase activity was determined by setting a vehicle treated cell's activity value at 100% and expressing the β-galactosidase activity measured in a corresponding compound treated cell as a percent of the vehicle treated cell activity.
# The EC50 and IC50 values for compounds tested were calculated by linear regression and were obtained from studies in which varying compound concentrations were used.
# The EC50 values for compounds tested were calculated by linear regression and were obtained from studies in which varying compound concentrations were used. Where an EC50 was not obtained, test results are provided as percent inhibition at a test concentration of 1 μM. ^aTest value in IC50; indicates agonist activity.
# [4] = test concentration 0.2 μM (superscript a)
SMILES,IC50 [2],"inhibition at 0.2 µM [1, 4]",further results
"C[C@@H](NC(=O)c1nn(Cc2ccccc2)c2c1CSCC2)c1ccccc1 [Cpd 1, 1-benzyl-1,4,6,7-tetrahydro-thiopyrano[4,3-c]pyrazole-3-carboxylic acid [(1R)-1-phenyl-ethyl]-amide]",160 nM,–,IC50 [1]: 62 nM; IC50 [3]: 70 nM
"C[C@H](NS(=O)(=O)/C=C/c1nn(Cc2ccccc2)c2c1CSCC2)c1ccccc1 [Cpd 3, (E)-2-(1-benzyl-1,4,6,7-tetrahydro-thiopyrano[4-3-c]pyrazol-3-yl)-ethenesulfonic acid [(1S)-1-phenyl-ethyl]-amide]",–,–,inhibition at 1 µM [1]: 74%; inhibition at 1 µM [2]: 23%; inhibition at 1 µM [3]: 17%
"C[C@@H](NC(=O)c1nn(Cc2ccccc2)c2c1CS(=O)(=O)CC2)c1ccccc1 [Cpd 13, 1-benzyl-5,5-dioxo-4,5,6,7-tetrahydro-1H-5λ^6-thiopyrano[4,3-c]pyrazole-3-carboxylic acid [(1R)-1-phenyl-ethyl]-amide]",–,–,inhibition at 1 µM [1]: 55%; inhibition at 1 µM [2]: 38%; EC50 [3]: 7880 nM
"CC12CCC(C1)C(C)(C)C2NC(=O)c1nn(Cc2ccccc2)c2c1CSCC2 (centres unmarked) [Cpd 19, 1-benzyl-1,4,6,7-tetrahydro-thiopyrano[4,3-c]pyrazole-3-carboxylic acid (1,3,3-trimethyl-bicyclo[2.2.1]hept-2-yl)-amide]",5 nM,–,IC50 [1]: 0.7 nM; IC50 [3]: 30 nM
"CC12CCC(C1)C(C)(C)C2NC(=O)c1nn(Cc2ccccc2)c2c1CS(=O)(=O)CC2 (centres unmarked) [Cpd 20, 1-benzyl-5,5-dioxo-4,5,6,7-tetrahydro-1H-5λ^6-thiopyrano[4,3-c]pyrazole-3-carboxylic acid (1,3,3-trimethyl-bicyclo[2.2.1]hept-2-yl)-amide]",22 nM,–,IC50 [1]: 5 nM; IC50 [3]: 60 nM
"CC(NS(=O)(=O)/C=C/c1nn(Cc2ccccc2)c2c1C[S+]([O-])CC2)C1CCCCC1 (centres unmarked) [Cpd 25, (E)-2-(1-benzyl-5-oxo-4,5,6,7-tetrahydro-1H-5λ^4-thiopyrano[4,3-c]pyrazol-3-yl)-ethenesulfonic acid (1-cyclohexyl-ethyl)amide]",–,–,"CB1 binding percent inhibition ([2]; test concentration 10 μM (superscript c), 10 µM): 0% and 6%; inhibition at 1 µM [3]: 1%"
"O=C(NN1CCCCC1)c1nn(-c2ccc(Cl)cc2Cl)c2c1CS(=O)(=O)C/C2=C\c1ccc(Cl)o1 [Cpd 119, (7Z)-7-(5-chloro-furan-2-ylmethylene)-1-(2,4-dichloro-phenyl)-5,5-dioxo-4,5,6,7-tetrahydro-1H-5λ^6-thiopyrano[4,3-c]pyrazole-3-carboxylic acid piperidin-1-ylamide]",81 nM,17%,–
"O=C(NN1CCCCCC1)c1nn(-c2ccc(Cl)cc2Cl)c2c1CS(=O)(=O)C/C2=C\c1ccc(Cl)o1 [Cpd 120, (7Z)-7-(5-chloro-furan-2-ylmethylene)-1-(2,4-dichloro-phenyl)-5,5-dioxo-4,5,6,7-tetrahydro-1H-5λ^6-thiopyrano[4,3-c]pyrazole-3-carboxylic acid azepan-1-ylamide]",33 nM,12%,–
"O=C(NN1CC2CCCC2C1)c1nn(-c2ccc(Cl)cc2Cl)c2c1CS(=O)(=O)C/C2=C\c1ccc(Cl)o1 (centres unmarked) [Cpd 121, (7Z)-7-(5-chloro-furan-2-ylmethylene)-1-(2,4-dichloro-phenyl)-5,5-dioxo-4,5,6,7-tetrahydro-1H-5λ^6-thiopyrano[4,3-c]pyrazole-3-carboxylic acid (hexahydro-cyclopenta[c]pyrrol-2-yl)-amide]",48 nM,15%,–
"COC[C@H]1CCCN1NC(=O)c1nn(-c2ccc(Cl)cc2Cl)c2c1CSC/C2=C\c1ccc(F)cc1 [Cpd 122, (7Z)-1-(2,4-dichloro-phenyl)-7-(4-fluoro-benzylidene)-1,4,6,7-tetrahydro-thiopyrano[4,3-c]pyrazole-3-carboxylic acid [(2R)-2-(methoxymethyl)-pyrrolidin-1-yl]-amide]",6 nM,18%,–
"COC[C@@H]1CCCN1NC(=O)c1nn(-c2ccc(Cl)cc2Cl)c2c1CSC/C2=C\c1ccc(F)cc1 [Cpd 123, (7Z)-1-(2,4-dichloro-phenyl)-7-(4-fluoro-benzylidene)-1,4,6,7-tetrahydro-thiopyrano[4,3-c]pyrazole-3-carboxylic acid [(2S)-2-(methoxymethyl)-pyrrolidin-1-yl]-amide]",–,12%,inhibition at 0.2 µM [2]: 61%
"C[C@@H](NC(=O)c1nn(-c2ccc(Cl)cc2Cl)c2c1CS(=O)(=O)C/C2=C\c1ccc(F)cc1)c1ccccn1 [Cpd 124, (7Z)-1-(2,4-dichloro-phenyl)-7-(4-fluoro-benzylidene)-5,5-dioxo-4,5,6,7-tetrahydro-1H-5λ^6-thiopyrano[4,3-c]pyrazole-3-carboxylic acid [(1R)-1-(pyridin-2-yl)-ethyl]-amide]",5 nM,12%,–
"COC[C@@H]1CCCN1NC(=O)c1nn(-c2ccc(Cl)cc2Cl)c2c1CS(=O)(=O)C/C2=C\c1ccc(F)cc1 [Cpd 125, (7Z)-1-(2,4-dichloro-phenyl)-7-(4-fluoro-benzylidene)-5,5-dioxo-4,5,6,7-tetrahydro-1H-5λ^6-thiopyrano[4,3-c]pyrazole-3-carboxylic acid [(2S)-2-(methoxymethyl)-pyrrolidin-1-yl]-amide]",58 nM,8%,–
"COC[C@H]1CCCN1NC(=O)c1nn(-c2ccc(Cl)cc2Cl)c2c1CS(=O)(=O)C/C2=C\c1ccc(F)cc1 [Cpd 126, (7Z)-1-(2,4-dichloro-phenyl)-7-(4-fluoro-benzylidene)-5,5-dioxo-4,5,6,7-tetrahydro-1H-5λ^6-thiopyrano[4,3-c]pyrazole-3-carboxylic acid [(2R)-2-(methoxymethyl)-pyrrolidin-1-yl]-amide]",–,0%,inhibition at 0.2 µM [2]: 55%
"C[C@@H](NC(=O)c1nn(-c2ccc(Cl)cc2Cl)c2c1CSC/C2=C\c1ccc(F)cc1)c1ccccn1 [Cpd 127, (7Z)-1-(2,4-dichloro-phenyl)-7-(4-fluoro-benzylidene)-1,4,6,7-tetrahydro-thiopyrano[4,3-c]pyrazole-3-carboxylic acid [(1R)-1-(pyridin-2-yl)-ethyl]-amide]",7 nM,–,inhibition at 0.2 µM [1]: 19%
"C[C@@H](NC(=O)c1nn(-c2ccc(Cl)cc2Cl)c2c1CS(=O)(=O)CC2)c1ccccc1 [Cpd 128, 1-(2,4-dichloro-phenyl)-5,5-dioxo-4,5,6,7-tetrahydro-1H-5λ^6-thiopyrano[4,3-c]pyrazole-3-carboxylic acid [(1R)-1-phenyl-ethyl]-amide]",–,10%,inhibition at 0.2 µM [2]: 5%
"C[C@@H](NC(=O)c1nn(-c2ccc(Cl)cc2Cl)c2c1CSC/C2=C\c1ccc(Br)cc1)c1ccccc1 [Cpd 129, (7Z)-(4-Bromo-benzylidene)-1-(2,4-dichloro-phenyl)-1,4,6,7-tetrahydro-thiopyrano[4,3-c]pyrazole-3-carboxylic acid [(1R)-1-phenyl-ethyl]-amide]",6 nM,–,inhibition at 0.2 µM [1]: 26%
"O=C(NN1CCCCC1)c1nn(-c2ccc(Cl)cc2Cl)c2c1CSC/C2=C\c1ccc(Br)cc1 [Cpd 130, (7Z)-(4-Bromo-benzylidene)-1-(2,4-dichloro-phenyl)-1,4,6,7-tetrahydro-thiopyrano[4,3-c]pyrazole-3-carboxylic acid piperidin-1-ylamide]",21 nM,34%,–
